Test results taken from ChEMBL document CHEMBL2176866, “Progress in the development and application of small molecule inhibitors of bromodomain-acetyl-lysine interactions” (J Med Chem, 2012).

Tests used:
[1] = AUC (infinity) in mouse; assay type: ADME, organism-based; set-up: time infinity; settings: plasma
[2] = Half life in mouse; assay type: ADME, organism-based; settings: in vivo

Structure (SMILES) | AUC(0-inf) [1] [µM·h] | half-life [2] [h]
CCNC(=O)C[C@@H]1N=C(c2ccc(Cl)cc2)c2cc(OC)ccc2-n2c(C)nnc21 [MOLIBRESIB] | 40 | 1.6
COc1cc2c(cc1-c1c(C)noc1C)ncc1[nH]c(=O)n([C@H](C)c3ccccn3)c12 | 680 | 7.2
